PubChem BioAssay (NCI)
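Tested at 5 concentrations; 48 h exposure; 96-well plates; endpoints linearly interpolated, else capped at highest concentration. Abbreviation: GI50, concentration required for 50% inhibition of growth. TGI denotes the concentration required for complete inhibition of growth.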

Experiments:
Assay in all cases: DTP human tumour cell line panel, 48 h
COLO 205 colon = tested on: COLO 205 colon
MDA-MB-231 breast = tested on: MDA-MB-231 breast
MOLT-4 leukemia = tested on: MOLT-4 leukemia
SN12C renal = tested on: SN12C renal
SK-MEL-28 melanoma = tested on: SK-MEL-28 melanoma
OVCAR-8 ovarian = tested on: OVCAR-8 ovarian
NCI-H23 lung = tested on: NCI-H23 lung
HT29 colon = tested on: HT29 colon
DU-145 prostate = tested on: DU-145 prostate
T-47D breast = tested on: T-47D breast
NCI-H522 lung = tested on: NCI-H522 lung
SK-MEL-2 melanoma = tested on: SK-MEL-2 melanoma
A549 NSCLC = tested on: A549 NSCLC
SF-295 CNS = tested on: SF-295 CNS
BT-549 breast = tested on: BT-549 breast
SNB-19 CNS = tested on: SNB-19 CNS
SW-620 colon = tested on: SW-620 colon
A498 renal = tested on: A498 renal
PC-3 prostate = tested on: PC-3 prostate
ACHN renal = tested on: ACHN renal
RXF 393 renal = tested on: RXF 393 renal
HCT-15 colon = tested on: HCT-15 colon
HL-60(TB) leukemia = tested on: HL-60(TB) leukemia
UO-31 renal = tested on: UO-31 renal
MCF7 breast = tested on: MCF7 breast
UACC-257 melanoma = tested on: UACC-257 melanoma
HOP-62 NSCLC = tested on: HOP-62 NSCLC
OVCAR-3 ovarian = tested on: OVCAR-3 ovarian
SF-539 CNS = tested on: SF-539 CNS
786-0 renal = tested on: 786-0 renal
U251 CNS = tested on: U251 CNS
NCI/ADR-RES ovarian = tested on: NCI/ADR-RES ovarian
HCC-2998 colon = tested on: HCC-2998 colon
LOX IMVI melanoma = tested on: LOX IMVI melanoma
TK-10 renal = tested on: TK-10 renal
KM12 colon = tested on: KM12 colon
CAKI-1 renal = tested on: CAKI-1 renal
OVCAR-4 ovarian = tested on: OVCAR-4 ovarian
IGROV1 ovarian = tested on: IGROV1 ovarian
NCI-H460 lung = tested on: NCI-H460 lung
NCI-H226 lung = tested on: NCI-H226 lung
UACC-62 melanoma = tested on: UACC-62 melanoma
HCT-116 colon = tested on: HCT-116 colon
SR leukemia = tested on: SR leukemia
HOP-92 NSCLC = tested on: HOP-92 NSCLC
SK-MEL-5 melanoma = tested on: SK-MEL-5 melanoma
MDA-MB-435 = tested on: MDA-MB-435
M14 melanoma = tested on: M14 melanoma
OVCAR-5 ovarian = tested on: OVCAR-5 ovarian
HS 578T breast = tested on: HS 578T breast
SF-268 CNS = tested on: SF-268 CNS

Compound `O=CN1N=C(c2ccc(Nc3ccnc4cc(Cl)ccc34)cc2)CC1c1ccc(Cl)cc1` (configuration not stated) has a GI50 (COLO 205 colon) of 2.4 µM, a TGI (COLO 205 colon) greater than 100 µM and a GI50 (MDA-MB-231 breast) of 1.43 µM. The TGI (MDA-MB-231 breast) was greater than 100 µM, the GI50 (MOLT-4 leukemia) was 0.529 µM and the TGI (MOLT-4 leukemia) was greater than 100 µM. For the same compound, the GI50 (SN12C renal) was 0.978 µM, the TGI (SN12C renal) was greater than 100 µM and the GI50 (SK-MEL-28 melanoma) was 0.758 µM. It also gave a TGI (SK-MEL-28 melanoma) greater than 100 µM, a GI50 (OVCAR-8 ovarian) of 3.22 µM and a TGI (OVCAR-8 ovarian) greater than 100 µM. The GI50 (NCI-H23 lung) was 2.77 µM, the TGI (NCI-H23 lung) was greater than 100 µM and the GI50 (HT29 colon) was 0.407 µM. For the same compound, the TGI (HT29 colon) was 8.5 µM, the GI50 (DU-145 prostate) was 1.94 µM and the TGI (DU-145 prostate) was greater than 100 µM. The GI50 (T-47D breast) was 1.56 µM, the TGI (T-47D breast) was greater than 100 µM and the GI50 (NCI-H522 lung) was 0.386 µM. For the same compound, the TGI (NCI-H522 lung) was 30.2 µM, the GI50 (SK-MEL-2 melanoma) was 7.86 µM and the TGI (SK-MEL-2 melanoma) was greater than 100 µM. For the same compound, the GI50 (A549 NSCLC) was 0.992 µM, the TGI (A549 NSCLC) was greater than 100 µM and the GI50 (SF-295 CNS) was 0.274 µM. The TGI (SF-295 CNS) was 1.08 µM, the GI50 (BT-549 breast) was 4.77 µM and the TGI (BT-549 breast) was greater than 100 µM. The GI50 (SNB-19 CNS) was 1.92 µM, the TGI (SNB-19 CNS) was greater than 100 µM and the GI50 (SW-620 colon) was 0.478 µM. It also gave a TGI (SW-620 colon) greater than 100 µM, a GI50 (A498 renal) greater than 100 µM and a TGI (A498 renal) greater than 100 µM. For the same compound, the GI50 (PC-3 prostate) was 0.475 µM, the TGI (PC-3 prostate) was greater than 100 µM and the GI50 (ACHN renal) was 1 µM. For the same compound, the TGI (ACHN renal) was greater than 100 µM, the GI50 (RXF 393 renal) was 1.88 µM and the TGI (RXF 393 renal) was greater than 100 µM. The GI50 (HCT-15 colon) was 0.58 µM, the TGI (HCT-15 colon) was greater than 100 µM and the GI50 (HL-60(TB) leukemia) was 0.376 µM. For the same compound, the TGI (HL-60(TB) leukemia) was greater than 100 µM, the GI50 (UO-31 renal) was 1.3 µM and the TGI (UO-31 renal) was greater than 100 µM. The GI50 (MCF7 breast) was 0.48 µM, the TGI (MCF7 breast) was greater than 100 µM and the GI50 (UACC-257 melanoma) was greater than 100 µM. It also gave a TGI (UACC-257 melanoma) greater than 100 µM, a GI50 (HOP-62 NSCLC) of 0.859 µM and a TGI (HOP-62 NSCLC) greater than 100 µM. The GI50 (OVCAR-3 ovarian) was 0.352 µM, the TGI (OVCAR-3 ovarian) was greater than 100 µM and the GI50 (SF-539 CNS) was 0.575 µM. For the same compound, the TGI (SF-539 CNS) was greater than 100 µM, the GI50 (786-0 renal) was 0.908 µM and the TGI (786-0 renal) was greater than 100 µM. It also gave a GI50 (U251 CNS) of 0.511 µM, a TGI (U251 CNS) greater than 100 µM and a GI50 (NCI/ADR-RES ovarian) of 0.359 µM. For the same compound, the TGI (NCI/ADR-RES ovarian) was greater than 100 µM, the GI50 (HCC-2998 colon) was 1.61 µM and the TGI (HCC-2998 colon) was 8.11 µM. The GI50 (LOX IMVI melanoma) was 0.599 µM, the TGI (LOX IMVI melanoma) was greater than 100 µM and the GI50 (TK-10 renal) was 9.57 µM. For the same compound, the TGI (TK-10 renal) was greater than 100 µM, the GI50 (KM12 colon) was 0.538 µM and the TGI (KM12 colon) was greater than 100 µM. The GI50 (CAKI-1 renal) was 0.409 µM, the TGI (CAKI-1 renal) was greater than 100 µM and the GI50 (OVCAR-4 ovarian) was 6.48 µM. For the same compound, the TGI (OVCAR-4 ovarian) was greater than 100 µM, the GI50 (IGROV1 ovarian) was 5.01 µM and the TGI (IGROV1 ovarian) was greater than 100 µM. For the same compound, the GI50 (NCI-H460 lung) was 0.592 µM, the TGI (NCI-H460 lung) was greater than 100 µM and the GI50 (NCI-H226 lung) was 4.66 µM. The TGI (NCI-H226 lung) was greater than 100 µM, the GI50 (UACC-62 melanoma) was 0.567 µM and the TGI (UACC-62 melanoma) was greater than 100 µM. The GI50 (HCT-116 colon) was 0.499 µM, the TGI (HCT-116 colon) was greater than 100 µM and the GI50 (SR leukemia) was 0.324 µM. The TGI (SR leukemia) was greater than 100 µM, the GI50 (HOP-92 NSCLC) was greater than 100 µM and the TGI (HOP-92 NSCLC) was greater than 100 µM. For the same compound, the GI50 (SK-MEL-5 melanoma) was 0.809 µM, the TGI (SK-MEL-5 melanoma) was greater than 100 µM and the GI50 (MDA-MB-435) was 0.198 µM. It also gave a TGI (MDA-MB-435) of 0.48 µM, a GI50 (M14 melanoma) of 0.622 µM and a TGI (M14 melanoma) greater than 100 µM. The GI50 (OVCAR-5 ovarian) was 6.46 µM, the TGI (OVCAR-5 ovarian) was greater than 100 µM and the GI50 (HS 578T breast) was 3.93 µM. For the same compound, the TGI (HS 578T breast) was greater than 100 µM, the GI50 (SF-268 CNS) was 0.847 µM and the TGI (SF-268 CNS) was greater than 100 µM.
